{"source": "patent EP0341104B1", "about": "“Substituted flavonoid compounds, their salts, their manufacture and medicines containing these materials” (MERCK PATENT GmbH, priority 1988, dated 1989)", "key": {"[1]": {"test_system": "tumored cells of the type YAC-1", "test": "stimulation of the activity of killer cells (splenic cells of treated mice, chromium 51 release)", "assay_type": "in vivo, Mice BALB/C", "conditions": "200 mg/kg intravenously; spleens taken 24 hours after administration; 4 hours incubation with 1 x 10⁴ YAC-1 cells; HBSS controls no measurable activity", "method": "The determination of the activity of killer cells was made in accordance with the following. Mice BALB/C were treated intraveneously, either with 0.25 ml of HBSS or with 200 mg/kg of a compound of formula (IV). Twenty four hours after administration of the compound, the spleens of the animals were reduced to a state of suspension. Debris and cellular wastes are eliminated by sedimentation and the red corpuscles are lysed with distilled water. The cellular suspension obtained was then filtered over sterile gauze and washed twice with HBSS.\nDifferent quantities of splenic cells are incubated with 1 x 10⁴ tumored cells of the type YAC-1 stained with chromium 51. The length of incubation was 4 hours at 37°C in a RPMI 1640-type medium supplemented with 5% of FBS, pencillin (100 U/ml) streptomycin (100 µg/ml), L-glutamine (20 mM), sodium pyruvate (1 mM), and nonessential amino acids (0.1 mM) in a buffered medium. The floating bodies are removed and a count effectuated.\nThe results are expressed in lytic units (UL₁₀): where UL₁₀ is the quantity necessary to effectuate lysis of 1 x 10⁴ target cells. For example, it was discovered that the compound of formula 19, provided 80 UL. The compound of formula 25 provided 60 UL. The compound of formula 42 provided 110 UL."}, "interferon (IFN)": {"test_system": "interferon (IFN)", "assay_type": "in vivo, Mice BALB/C", "conditions": "200 mg/kg intravenously; unit = quantity of IFN in 1 ml of sample reducing viral lysis by 50%; HBSS controls no induction"}, "in vivo": {"test": "in vivo", "conditions": "mouse, 400 mg/kg"}, "[2]": {"test_system": "ristocetin-induced platelet agglutination", "conditions": "Rubin et al, Lancet 1987; cited from earlier work"}, "[3]": {"test_system": "natural killer cell activity", "conditions": "Wiltrout et al, J. Immunol. 1988; cited from earlier work"}, "murine renal cancer": {"test_system": "murine renal cancer", "conditions": "Wiltrout et al, J. Immunol. 1988; cited from earlier work"}, "[4]": {"conditions": "after 20 days"}}, "data": [{"smiles": "O=C(O)Cc1cccc2c(=O)cc(-c3ccc(-c4ccccc4)cc3)oc12", "note": "[formula 19, PHENYL-4-PHENYL)2-OXO-4-4H-(1)-BENZOPYRAN-8-ACETIC ACID]", "values": [{"measurement": "activity of killer cells in lytic units (UL₁₀)", "setting": "[1]", "value": 80, "unit": "UL"}, {"measurement": "Interferon activity", "setting": "interferon (IFN)", "value": "1000 units of IFN"}]}, {"smiles": "O=C(O)Cc1cccc2c(=O)cc(-c3ccc([N+](=O)[O-])cc3)oc12", "note": "[formula 25, (NITRO-4-PHENYL)-2-OXO-4-4H-(1)-BENZOPYRAN-8-ACETIC ACID]", "values": [{"measurement": "activity of killer cells in lytic units (UL₁₀)", "setting": "[1]", "value": 60, "unit": "UL"}, {"measurement": "Interferon activity", "setting": "interferon (IFN)", "value": "1000 units of IFN"}]}, {"smiles": "C=C(C(=O)O)c1cccc2c(=O)cc(-c3ccccc3)oc12", "note": "[formula 42, (PHENYL-2-OXO-4-4H-(1) BENZOPYRAN-8-YL)-2-ACRYLIC ACID]", "values": [{"measurement": "activity of killer cells in lytic units (UL₁₀)", "setting": "[1]", "value": 110, "unit": "UL"}]}, {"smiles": "O=C(O)c1cccc2ccc3c(=O)cc(-c4ccccc4)oc3c12", "note": "[formula 67, OXO-4-PHENYL-2-4H-NAPHTO[1,2-b]PYRANONE-4]", "values": [{"measurement": "Interferon activity", "setting": "interferon (IFN)", "value": "1000 units of IFN"}]}, {"smiles": "O=C(O)Cc1ccc2c(=O)cc(-c3ccccc3)oc2c1", "note": "[formula 29, OXO-4-PHENYL-2-4H-(1) BENZOPYRAN-7-ACETIC ACID]", "values": [{"measurement": "mortality at 480 h", "setting": "in vivo", "value": 10, "unit": "%"}]}, {"smiles": "O=C(O)Cc1cccc2c(=O)cc(-c3ccccc3)oc12", "note": "[flavone-8-acetic acid]", "values": [{"measurement": "ristocetin-induced platelet agglutination", "setting": "[2]", "value": "inhibits"}, {"measurement": "systemic natural killer cell activity", "setting": "[3]", "value": "augments"}, {"measurement": "synergy with interleukin-2 (IL-2) for treatment of murine renal cancer", "setting": "murine renal cancer", "value": "synergizes with interleukin-2 (IL-2)"}, {"measurement": "mortality at 480 h", "setting": "in vivo", "value": 100, "unit": "%"}]}, {"smiles": "Nc1nc(-c2cccc3c(=O)cc(-c4ccccc4)oc23)cs1", "note": "[formula 58, (AMINO-2-THIAZOL-4-YL)-8-PHENYL-2-4H-[1] BENZOPYRANONE-4]", "values": [{"measurement": "mortality rate", "setting": "[4]", "value": "no deaths"}]}]}
